The test system of the series is CCRIS mutagenicity, Ames/micronucleus/aberration tests. Briefly: CCRIS mutagenicity studies. The following applies: Test System: AMES SALMONELLA TYPHIMURIUM
An excerpt:
The CCRIS database contains chemical records with carcinogenicity, mutagenicity, tumor promotion, and tumor inhibition test results. It was developed by the National Cancer Institute (NCI). Data are derived from studies cited in primary journals, current awareness tools, NCI reports, and other sources. Test results have been reviewed by experts in carcinogenesis and mutagenesis.
CCRIS provides historical information from the years 1985 - 2011. It is no longer updated.
This is an archive assay for CCRIS mutagenicity studies.

[1] abbreviates: Strain/Indicator: TA98, Metabolic Activation: NONE, Method: PREINCUBATION
The mark [2] stands for this setting: Strain/Indicator: TA100, Metabolic Activation: NONE, Method: PREINCUBATION
The mark [3] stands for this setting: Strain/Indicator: TA1535, Metabolic Activation: NONE, Method: PREINCUBATION
[4] abbreviates: Strain/Indicator: TA98, Metabolic Activation: NONE, Method: STANDARD PLATE.
Setting [5] is: Strain/Indicator: TA100, Metabolic Activation: NONE, Method: STANDARD PLATE.

The source made the active and inactive calls. The rule behind the calls is not given here.

Consider `CC(C)=C(Cl)C=O`, for which the mutagenic call reads like this: (Strain/Indicator: TA98, Metabolic Activation: NONE, Method: PREINCUBATION, LIQUID INCUBATION) “inactive; negative”; (Strain/Indicator: TA100, Metabolic Activation: NONE, Method: LIQUID INCUBATION) “active; positive”; (Strain/Indicator: TA100, Metabolic Activation: NONE, Method: PREINCUBATION, LIQUID INCUBATION) “active; positive”; (Strain/Indicator: TA1538, Metabolic Activation: NONE, Method: PREINCUBATION, LIQUID INCUBATION) “inactive; negative”.
With `CC(C)C(C)(C)C(C)(C)C(C)(C)S`, the mutagenic call was “inactive; negative” (Strain/Indicator: TA97, Metabolic Activation: HAMSTER, LIVER, S-9, AROCLOR 1254 (10%), Method: PREINCUBATION); “inactive; negative” (Strain/Indicator: TA97, Metabolic Activation: HAMSTER, LIVER, S-9, AROCLOR 1254 (10 OR 30%), Method: PREINCUBATION); “inactive; negative” (Strain/Indicator: TA97, Metabolic Activation: HAMSTER, LIVER, S-9, AROCLOR 1254 (30%), Method: PREINCUBATION); “inactive; negative” (Strain/Indicator: TA97, Metabolic Activation: NONE, Method: PREINCUBATION); “inactive; negative” (Strain/Indicator: TA97, Metabolic Activation: RAT, LIVER, S-9, AROCLOR 1254 (10 OR 30%), Method: PREINCUBATION); “inactive; negative” (Strain/Indicator: TA98, Metabolic Activation: HAMSTER, LIVER, S-9, AROCLOR 1254 (10 OR 30%), Method: PREINCUBATION). In addition, the mutagenic call under setting [1] is “inactive; negative”; the mutagenic call (Strain/Indicator: TA98, Metabolic Activation: RAT, LIVER, S-9, AROCLOR 1254 (10 OR 30%), Method: PREINCUBATION) is “inactive; negative”; the mutagenic call (Strain/Indicator: TA100, Metabolic Activation: HAMSTER, LIVER, S-9, AROCLOR 1254 (10 OR 30%), Method: PREINCUBATION) is “inactive; negative”; the mutagenic call under setting [2] was “inactive; negative”; the mutagenic call (Strain/Indicator: TA100, Metabolic Activation: RAT, LIVER, S-9, AROCLOR 1254 (10 OR 30%), Method: PREINCUBATION) is “inactive; negative”; the mutagenic call (Strain/Indicator: TA1535, Metabolic Activation: HAMSTER, LIVER, S-9, AROCLOR 1254 (10 OR 30%), Method: PREINCUBATION) was “inactive; negative”. In addition, the mutagenic call is, setting by setting: under setting [3], “inactive; negative”; (Strain/Indicator: TA1535, Metabolic Activation: RAT, LIVER, S-9, AROCLOR 1254 (10 OR 30%), Method: PREINCUBATION) “inactive; negative”.
In the case of `O=Cc1cccc2cccnc12`, the mutagenic call was “inactive; negative” under setting [4]; “inactive; negative” (Strain/Indicator: TA98, Metabolic Activation: RAT, LIVER, S-9, AROCLOR 1254, Method: STANDARD PLATE); “inactive; negative” under setting [5]; “active; positive” (Strain/Indicator: TA100, Metabolic Activation: RAT, LIVER, S-9, AROCLOR 1254, Method: STANDARD PLATE); “inactive; negative” (Strain/Indicator: TA1535, Metabolic Activation: NONE, Method: STANDARD PLATE); “inactive; negative” (Strain/Indicator: TA1535, Metabolic Activation: RAT, LIVER, S-9, AROCLOR 1254, Method: STANDARD PLATE). Further, the mutagenic call is “inactive; negative” (Strain/Indicator: TA1537, Metabolic Activation: NONE, Method: STANDARD PLATE) and “inactive; negative” (Strain/Indicator: TA1537, Metabolic Activation: RAT, LIVER, S-9, AROCLOR 1254, Method: STANDARD PLATE).
Consider `Nc1c(N=Nc2ccc(-c3ccc(NN=C4C=CC(=O)C=C4)cc3)cc2)c(S(=O)(=O)O)cc2c1C(=O)/C(=N/Nc1ccccc1)C(S(=O)(=O)O)=C2`, for which the mutagenic call was “inactive; negative” (Strain/Indicator: TA98, Metabolic Activation: HAMSTER, LIVER, S-9, AROCLOR 1254 (10%), Method: PREINCUBATION); “inactive; negative” under setting [1]; “inactive; negative” under setting [4]; “inactive; negative” (Strain/Indicator: TA98, Metabolic Activation: RAT, LIVER, S-9, AROCLOR 1254 (10%), Method: PREINCUBATION); “inactive; negative” (Strain/Indicator: TA98, Metabolic Activation: RAT, LIVER, S-9, PHENOBARBITAL, Method: STANDARD PLATE); “inactive; negative” (Strain/Indicator: TA100, Metabolic Activation: HAMSTER, LIVER, S-9, AROCLOR 1254 (10%), Method: PREINCUBATION). In addition, the mutagenic call is “inactive; negative” under setting [2]; “inactive; negative” under setting [5]; “inactive; negative” (Strain/Indicator: TA100, Metabolic Activation: RAT, LIVER, S-9, AROCLOR 1254 (10%), Method: PREINCUBATION); “inactive; negative” (Strain/Indicator: TA100, Metabolic Activation: RAT, LIVER, S-9, PHENOBARBITAL, Method: STANDARD PLATE); “active; positive” (Strain/Indicator: TA1535, Metabolic Activation: HAMSTER, LIVER, S-9, AROCLOR 1254 (10%), Method: PREINCUBATION); “inactive; negative” under setting [3]. The mutagenic call reads like this: (Strain/Indicator: TA1535, Metabolic Activation: RAT LIVER, S-9, AROCLOR 1254 (10%), Method: PREINCUBATION) “inactive; negative”; (Strain/Indicator: TA1535, Metabolic Activation: RAT, LIVER, S-9, AROCLOR 1254 (10%), Method: PREINCUBATION) “active; positive”; (Strain/Indicator: TA1537, Metabolic Activation: HAMSTER, LIVER, S-9, AROCLOR 1254 (10%), Method: PREINCUBATION) “inactive; negative”; (Strain/Indicator: TA1537, Metabolic Activation: NONE, Method: PREINCUBATION) “inactive; negative”; (Strain/Indicator: TA1537, Metabolic Activation: RAT, LIVER, S-9, AROCLOR 1254 (10%), Method: PREINCUBATION) “inactive; negative”.
In the case of `O=[N+]([O-])c1ccc2c(c1)-c1cccc3cccc-2c13`, the mutagenic call under setting [4] was “active; positive”.

The record behind these values is PubChem BioAssay AID1259407 (Chemical Carcinogenesis Research Information System (CCRIS), 2018).
